Results taken from PubChem BioAssay AID256 (DTP/NCI, 2004).
Several values for one entry are separate records, joined by “and”; a condition that tells them apart may be missing. Equal values may be shown once. Toxic doses and inconclusive results are not listed. How the source made its calls: active means survival T/C of 150% or more; inactive means T/C below 125% in these data.

Test system: CD2F1 mice, L1210 leukemia ip, survival T/C
Assay: NCI In Vivo Anticancer Drug Screen. Data for tumor model L1210 Leukemia (intraperitoneal) in CD2F1 (CDF1) mice
Settings: endpoint: mean survival time, higher = longer survival
Method in brief: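 Read-out first: treated-group measurement over vehicle-control measurement, expressed as a ratio. Animals bore a transplanted tumor line and were dosed with compound or vehicle.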

[1] = dose: 12.5 mg/kg/injection, schedule: Q01DX009 (ip), vehicle: saline with Tween-80
[2] = dose: 25.0 mg/kg/injection, schedule: Q01DX009 (ip), vehicle: saline with Tween-80
[3] = dose: 25.0 mg/kg/injection, schedule: Q01DX009 (ip), vehicle: saline
[4] = dose: 50.0 mg/kg/injection, schedule: Q01DX009 (ip), vehicle: saline with Tween-80
[5] = dose: 50.0 mg/kg/injection, schedule: Q01DX009 (ip), vehicle: saline
[6] = dose: 100.0 mg/kg/injection, schedule: Q01DX009 (ip), vehicle: saline with Tween-80
[7] = dose: 200.0 mg/kg/injection, schedule: Q01DX009 (ip), vehicle: saline with Tween-80
[8] = dose: 100.0 mg/kg/injection, schedule: Q04DX003 (ip), vehicle: saline with Tween-80
[9] = dose: 200.0 mg/kg/injection, schedule: Q04DX003 (ip), vehicle: saline with Tween-80
[10] = dose: 400.0 mg/kg/injection, schedule: Q04DX003 (ip), vehicle: saline with Tween-80
[11] = dose: 25.0 mg/kg/injection, schedule: Q04DX003 (ip), vehicle: saline
[12] = dose: 50.0 mg/kg/injection, schedule: Q04DX003 (ip), vehicle: saline
[13] = dose: 100.0 mg/kg/injection, schedule: Q04DX003 (ip), vehicle: saline
[14] = dose: 25.0 mg/kg/injection, schedule: Q04DX003 (ip), vehicle: saline with Tween-80
[15] = dose: 100.0 mg/kg/injection, schedule: Q01DX001 (ip), vehicle: saline with Tween-80
[16] = dose: 200.0 mg/kg/injection, schedule: Q01DX001 (ip), vehicle: saline with Tween-80
[17] = dose: 400.0 mg/kg/injection, schedule: Q01DX009 (ip), vehicle: saline with Tween-80

Measured: T/C

NCCCNCCSP(=O)(O)O
inactive: [1] 106 % of control | dose: 12.5 mg/kg/injection, schedule: Q01DX009 (ip), vehicle: saline 95 % of control | [2] 101 % of control | [3] 106 % of control | [4] 102 % of control | [5] 101 % of control | [6] 101 % of control | dose: 100.0 mg/kg/injection, schedule: Q01DX009 (ip), vehicle: saline 96 % of control | [7] 104 % of control | dose: 200.0 mg/kg/injection, schedule: Q01DX009 (ip), vehicle: saline 106 % of control | dose: 400.0 mg/kg/injection, schedule: Q01DX009 (ip), vehicle: saline 93 % of control

CCCCC(Sc1nn(C2OC(COC(=O)c3ccccc3)C(OC(=O)c3ccccc3)C2OC(=O)c2ccccc2)c(=O)[nH]c1=O)C(=O)OCC (stereo not drawn)
inactive: dose: 12.5 mg/kg/injection, schedule: Q01DX005 (ip), vehicle: distilled water + Tween-80 101 % of control | dose: 25.0 mg/kg/injection, schedule: Q01DX005 (ip), vehicle: distilled water + Tween-80 95 % of control | dose: 50.0 mg/kg/injection, schedule: Q01DX005 (ip), vehicle: distilled water + Tween-80 97 % of control | dose: 100.0 mg/kg/injection, schedule: Q01DX005 (ip), vehicle: distilled water + Tween-80 95 % of control | dose: 200.0 mg/kg/injection, schedule: Q01DX005 (ip), vehicle: distilled water + Tween-80 94 % of control

COC(=O)CCC(=O)NCCc1c[nH]c2ccccc12
inactive: [8] 98 % of control | [9] 93 % of control | [10] 98 % of control

O=C(C[n+]1ccc2ccccc2c1)c1ccc(Br)cc1
inactive: dose: 12.5 mg/kg/injection, schedule: Q04DX003 (ip), vehicle: saline 98 % of control | [3] 98 % of control | [11] 98 % of control | [5] 102 % of control | [12] 101 % of control | [13] 97 % of control

Cc1ccc(Cl)cc1NC(=S)NC(=O)COc1ccccc1
inactive: [1] 98 % of control and 106 % of control | [2] 98 % of control | [14] 100 % of control | dose: 50.0 mg/kg/injection, schedule: Q01DX001 (ip), vehicle: saline with Tween-80 97 % of control | dose: 50.0 mg/kg/injection, schedule: Q04DX003 (ip), vehicle: saline with Tween-80 96 % of control | [15] 89 % of control | dose: 100.0 mg/kg/injection, schedule: Q04DX002 (ip), vehicle: saline with Tween-80 87 % of control | [8] 90 % of control | [16] 88 % of control | dose: 200.0 mg/kg/injection, schedule: Q04DX002 (ip), vehicle: saline with Tween-80 98 % of control

CCCCNC(=O)Nc1ccc(C(=O)OCCCC)cc1
inactive: [6] 87 % of control | [8] 101 % of control | [7] 92 % of control | [9] 101 % of control | [17] 92 % of control | [10] 100 % of control

COc1ccc2nc(C(C)O)[nH]c2c1 (stereo not drawn)
inactive: [6] 89 % of control | [8] 103 % of control | [7] 93 % of control | [9] 101 % of control | [17] 89 % of control | [10] 96 % of control

Cc1ccc(C)c(NC(=O)c2ccc(Cl)cc2)c1
inactive: [8] 97 % of control | [9] 97 % of control | [10] 92 % of control

CCOC(=O)Nc1cc(NCCCCc2ccccc2)c(N)c(N)n1
inactive: [15] 102 % of control | [16] 109 % of control

O=CC(Br)C(Br)c1ccccc1 (stereo not drawn)
inactive: dose: 6.25 mg/kg/injection, schedule: Q01DX009 (ip), vehicle: saline with Tween-80 98 % of control | dose: 6.25 mg/kg/injection, schedule: Q04DX003 (ip), vehicle: saline with Tween-80 113 % of control | [1] 98 % of control | dose: 12.5 mg/kg/injection, schedule: Q04DX003 (ip), vehicle: saline with Tween-80 98 % of control | [2] 104 % of control | [14] 102 % of control and 104 % of control | dose: 50.0 mg/kg/injection, schedule: Q01DX009 (ip), vehicle: other 111 % of control

CC1CC[N-]CC1.CC1CC[N-]CC1.CS(C)=O.[Cl][Rh]([Cl])[Cl]
inactive: [8] 96 % of control

CO[C@H]1C[C@@H]2CC[C@@H](C)[C@@](O)(O2)C(=O)C(=O)N2CCCC[C@H]2C(=O)O[C@H]([C@H](C)C[C@@H]2CC[C@@H](O)[C@H](OC)C2)CC(=O)[C@H](C)C=C(C)[C@@H](O)[C@@H](OC)C(=O)[C@H](C)C[C@H](C)/C=C/C=C/C=C1C
inactive: [1] 107 % of control | [2] 113 % of control | [4] 114 % of control | [15] 113 % of control | [6] 112 % of control | [16] 111 % of control | [7] 104 % of control | dose: 400.0 mg/kg/injection, schedule: Q01DX001 (ip), vehicle: saline with Tween-80 120 % of control

C[N+](C)(C)C12CCCC1S(=O)(=O)C2 (stereo not drawn)
inactive: [11] 106 % of control | [12] 98 % of control | [13] 96 % of control

CC(C)(C)CC(C)(C)c1ccc(O)c(Cl)c1
inactive: [8] 96 % of control | [9] 100 % of control | [10] 106 % of control

N#CSCCN1C(=O)C2C3CCC(O3)C2C1=O (stereo not drawn)
inactive: dose: 25.0 mg/kg/injection, schedule: Q04DX002 (ip), vehicle: saline with Tween-80 103 % of control

CCC(C)NCCO (stereo not drawn)
inactive: dose: 75.0 mg/kg/injection, schedule: Q01DX001 (ip), vehicle: saline 96 % of control | dose: 150.0 mg/kg/injection, schedule: Q01DX001 (ip), vehicle: saline 104 % of control | dose: 300.0 mg/kg/injection, schedule: Q01DX001 (ip), vehicle: saline 104 % of control
